Among the test systems are SK-OV-3 ovarian; SW-620 colon; EKVX NSCLC; MDA-MB-435; HCC-2998 colon; HT29 colon; HCT-116 colon; HOP-62 NSCLC; M14 melanoma; SF-268 CNS.
Experiment in all cases: NCI-60 cell line screen, 48 h

7 compounds from PubChem BioAssay (NCI) can be followed below.

Values joined by “and” are separate entries in the source; they are usually repeats but may differ in a detail not shown here. Equal entries are not always repeated.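 Results reflect a 48-hour exposure of cells in 96-well plates to compound at five concentrations. GI50 = concentration required for 50% inhibition of growth. The concentration for full growth arrest is given as TGI.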 Where only a bound is given, the exact number is not on record here.

For `Cc1c2ccncc2c(C)c2c1c1cc(CO)ccc1n2C`, the GI50 in the experiment with SK-OV-3 ovarian is 0.784 µM; in the experiment on SW-620 colon it was 0.297 µM; with EKVX NSCLC it was 0.719 µM; in the experiment on MDA-MB-435, 0.467 µM; with HCC-2998 colon, 0.72 µM; in the experiment on HT29 colon, 0.338 µM. For the same compound, the GI50 in the experiment with HCT-116 colon was 0.175 µM; in the experiment on HOP-62 NSCLC it was 0.335 µM; with M14 melanoma, 0.687 µM; in the experiment with SF-268 CNS, 0.468 µM. Moreover, the TGI in the experiment on SK-OV-3 ovarian was found to be 3.71 µM; in the experiment on SW-620 colon it was 10.9 µM; with EKVX NSCLC, 5.98 µM; with MDA-MB-435 it was 3.74 µM; in the experiment with HCC-2998 colon, 3.42 µM; with HT29 colon, 1.78 µM. Moreover, the TGI turned out to be 1.66 µM in the experiment on HCT-116 colon, 2.05 µM in the experiment on HOP-62 NSCLC, 3.27 µM with M14 melanoma and 7.81 µM in the experiment on SF-268 CNS.
As for `CCN(CC)C(=S)SSC(=S)N(CC)CC`, the GI50 in the experiment with SK-OV-3 ovarian is 49.4 µM and 58.9 µM; in the experiment with SW-620 colon, 16.1 µM and 17 µM; with EKVX NSCLC, 25.7 µM and 25.6 µM; in the experiment with MDA-MB-435, 15.6 µM and 18.7 µM; in the experiment on HCC-2998 colon it was 28.7 µM and 31.3 µM; with HT29 colon, 16.5 µM and 16.8 µM. For the same compound, the GI50 with HCT-116 colon was 11.4 µM; in the experiment on HOP-62 NSCLC, 33.9 µM and 33.7 µM; with M14 melanoma, 12.1 µM and 12.6 µM; in the experiment on SF-268 CNS, 22 µM and 18.6 µM. Besides, the TGI was 173 µM with SK-OV-3 ovarian; 30.4 µM and 32.6 µM with SW-620 colon; 84.6 µM and 73.3 µM in the experiment with EKVX NSCLC; 43.5 µM and 53.3 µM in the experiment with MDA-MB-435; > 67.9 µM and 124 µM in the experiment on HCC-2998 colon; 31.5 µM and 35.5 µM with HT29 colon. The TGI with HCT-116 colon was 24.9 µM; with HOP-62 NSCLC it was > 67.9 µM and 112 µM; with M14 melanoma it was 28.9 µM and 28.1 µM; in the experiment on SF-268 CNS, > 58 µM and 42.6 µM.
Regarding `CCN1C(=O)N(CC)C2C1NN=c1s/c(=C\c3ccc[nH]3)c(=O)n12` (configuration not stated), the GI50 with SK-OV-3 ovarian was 0.301 µM; in the experiment with SW-620 colon, 0.326 µM; in the experiment with EKVX NSCLC it was 0.852 µM; with MDA-MB-435, 0.0832 µM; in the experiment with HCC-2998 colon, 1.82 µM; in the experiment on HT29 colon, 0.342 µM. Moreover, the GI50 was 0.453 µM in the experiment on HCT-116 colon, 0.603 µM with HOP-62 NSCLC, 0.385 µM in the experiment with M14 melanoma and 0.7 µM in the experiment on SF-268 CNS. In addition, the TGI in the experiment with SK-OV-3 ovarian was above 100 µM; with SW-620 colon, above 100 µM; with EKVX NSCLC, above 100 µM; in the experiment on MDA-MB-435, 0.421 µM; in the experiment on HCC-2998 colon, above 100 µM; in the experiment on HCT-116 colon, above 100 µM. The TGI in the experiment with HOP-62 NSCLC, in the experiment on M14 melanoma and with SF-268 CNS was above 100 µM throughout.
Consider `O=c1c(O)cccn1CCCN(CCCn1cccc(O)c1=O)CCn1cccc(O)c1=O`, for which the GI50 in the experiment with SK-OV-3 ovarian was 3.37 µM; in the experiment with SW-620 colon, 9.02 µM; in the experiment on EKVX NSCLC, 2.79 µM; in the experiment on MDA-MB-435 it was 3.46 µM; in the experiment with HCC-2998 colon, 5.18 µM; with HT29 colon, 29.5 µM. Moreover, the GI50 is 2.85 µM in the experiment with HCT-116 colon, 4.35 µM in the experiment with HOP-62 NSCLC, 5.41 µM in the experiment on M14 melanoma and 1.9 µM in the experiment on SF-268 CNS. Further, the TGI in the experiment on SK-OV-3 ovarian, in the experiment with SW-620 colon, in the experiment on EKVX NSCLC, in the experiment with MDA-MB-435, in the experiment with HCC-2998 colon and in the experiment on HT29 colon was above 100 µM in each case. For the same compound, the TGI with HCT-116 colon is above 100 µM; with HOP-62 NSCLC, above 100 µM; in the experiment with M14 melanoma, 60.2 µM; in the experiment on SF-268 CNS, above 100 µM.
With `C[C@@H]1COCCN1c1cc(-c2ccnn2C)c2ccnc(-c3ccn[nH]3)c2n1`, the GI50 is 0.0928 µM and 0.215 µM in the experiment on SK-OV-3 ovarian; 0.259 µM and 0.603 µM in the experiment with SW-620 colon; 0.205 µM and 0.349 µM in the experiment on EKVX NSCLC; 0.0984 µM and 0.199 µM in the experiment on MDA-MB-435; 0.0277 µM and 0.0581 µM in the experiment on HCC-2998 colon; 0.237 µM and 0.389 µM in the experiment on HT29 colon. The GI50 in the experiment on HCT-116 colon is 0.159 µM and 0.228 µM; in the experiment on HOP-62 NSCLC it was 0.112 µM and 0.216 µM; with M14 melanoma, 0.0291 µM and 0.0471 µM; in the experiment with SF-268 CNS, 0.238 µM and 0.449 µM. The TGI in the experiment with SK-OV-3 ovarian was 0.732 µM and 2.06 µM; with SW-620 colon, above 100 µM; in the experiment on EKVX NSCLC it was 8.11 µM and > 28.6 µM; in the experiment on MDA-MB-435, 2.89 µM and 5 µM; with HCC-2998 colon it was 18.6 µM and > 100 µM; in the experiment with HT29 colon, 36.4 µM and > 100 µM. The TGI was 16.3 µM and > 59 µM with HCT-116 colon; 1.94 µM with HOP-62 NSCLC.
Consider `Nc1ncccc1-c1nc2ccc(-c3ccccc3)nc2n1-c1ccc(C2(N)CCC2)cc1`, for which the GI50 with SK-OV-3 ovarian was 0.166 µM; in the experiment on SW-620 colon, 1.53 µM; with EKVX NSCLC, 1.92 µM; in the experiment on MDA-MB-435, 1.35 µM; with HCC-2998 colon, 1.19 µM; with HT29 colon, 0.435 µM. The GI50 with HCT-116 colon was 1.43 µM; in the experiment with HOP-62 NSCLC, 1.9 µM; with M14 melanoma, 1.4 µM; with SF-268 CNS it was 2.05 µM. Also, the TGI in the experiment with SK-OV-3 ovarian was 3.01 µM; in the experiment with SW-620 colon it was 3.35 µM; in the experiment with EKVX NSCLC it was 16.2 µM; with MDA-MB-435 it was 2.88 µM; in the experiment with HCC-2998 colon, 2.77 µM; in the experiment on HT29 colon, 3.37 µM. In addition, the TGI in the experiment on HCT-116 colon amounted to 2.91 µM; in the experiment on HOP-62 NSCLC, 8.48 µM; in the experiment on M14 melanoma it was 2.96 µM; with SF-268 CNS, 12.4 µM.
As to `C=C1CC[C@@H]2[C@](C)(COC(C)=O)[C@H](OC(C)=O)CC[C@@]2(C)[C@@H]1CC(Nc1ccc(S(=O)(=O)Nc2nccs2)cc1)C1=CCOC1=O` (some centres not stated), the GI50 is 14.4 µM in the experiment with SK-OV-3 ovarian; 1.85 µM in the experiment on SW-620 colon; 14 µM in the experiment with EKVX NSCLC; 3.29 µM in the experiment on MDA-MB-435; 7.78 µM with HCC-2998 colon; 2.17 µM with HT29 colon. Further, the GI50 in the experiment with HCT-116 colon is 1.75 µM; in the experiment on HOP-62 NSCLC, 13.8 µM; in the experiment with M14 melanoma it was 2.83 µM; in the experiment on SF-268 CNS, 11.3 µM. The TGI was determined as 27.8 µM in the experiment with SK-OV-3 ovarian; 3.98 µM with SW-620 colon; 27 µM in the experiment with EKVX NSCLC; 12.7 µM in the experiment on MDA-MB-435; 21.3 µM with HCC-2998 colon; 4.7 µM in the experiment with HT29 colon. In addition, the TGI in the experiment on HCT-116 colon is 3.75 µM; in the experiment with HOP-62 NSCLC, 27.5 µM; in the experiment on M14 melanoma, 10.5 µM; with SF-268 CNS, 25.9 µM.
